Data: paper PMC7924852, “The Emericellipsins A–E from an Alkalophilic Fungus Emericellopsis alkalina Show Potent Activity against Multidrug-Resistant Pathogenic Fungi” (Journal of Fungi, 2021)
≈ marks a conversion by molar mass, not a printed value. Where two headings read alike, the source gives them in different places. Starred links: 1 amine or outer side, 2 acyl side, 3 side chain; linkers in the order of their positions; H or OH if unused. Positions of bridges follow the written chain, without caps; N, C: chain ends. Non-standard residues stand in square brackets, D forms with d. Residues, ends and D or L forms follow the SMILES beside them. *: point of attachment. pTerphenylCO(4''-OnC5H11) = CCCCCOc1ccc(-c2ccc(-c3ccc(C(=O)*)cc3)cc2)cc1; Orn(4R-OH,5R-OH) = O=C([C@H](C[C@@H](O)[C@@H](O)N[*:3])N[*:1])[*:2]; hTyr(3S-OH,4S-OH) = N[C@H](C(=O)O)[C@H](O)[C@@H](O)c1ccc(O)cc1; Pro(3S-OH,4S-Me) = C[C@H]1CN[C@H](C(=O)O)[C@H]1O; Hyp = O=C(O)[C@@H]1C[C@@H](O)CN1

Assays:
C. glabrata 1402 [1] = experiment: Sensititre YeastOne antifungal susceptibility test; format: cell-based; details: Nakaseomyces glabratus
A. terreus 497 = experiment: Sensititre YeastOne antifungal susceptibility test; format: cell-based; details: Aspergillus terreus
C. krusei 1447 [2] = experiment: Sensititre YeastOne antifungal susceptibility test; format: cell-based; details: Pichia kudriavzevii
Cr. laurentii 325m = experiment: Sensititre YeastOne antifungal susceptibility test; format: cell-based; details: Papiliotrema laurentii
[3] = test system: Cryptococcus neoformans 297; experiment: Sensititre YeastOne antifungal susceptibility test; format: cell-based
C. tropicalis 156 [4] = experiment: Sensititre YeastOne antifungal susceptibility test; format: cell-based; details: Candida tropicalis
Aspergillus niger 1133m = experiment: Sensititre YeastOne antifungal susceptibility test; format: cell-based
A. fumigatus 390m = experiment: Sensititre YeastOne antifungal susceptibility test; format: cell-based; details: Aspergillus fumigatus
C. parapsilosis 571 [5] = experiment: Sensititre YeastOne antifungal susceptibility test; format: cell-based; details: Lodderomyces parapsilosis
Candida albicans 1402 [6] = experiment: Sensititre YeastOne antifungal susceptibility test; format: cell-based
[7] = test system: Cryptococcus neoformans 297; experiment: Broth microdilution MIC and MFC (CLSI); format: cell-based; details: Cryptococcus neoformans 297 clinical isolate; RPMI 1640 pH 7.0, 35 °C, 24 h; read-out: MIC
Candida albicans 1402 [8] = experiment: Broth microdilution MIC and MFC (CLSI); format: cell-based
C. glabrata 1402 [9] = experiment: Broth microdilution MIC and MFC (CLSI); format: cell-based; details: Nakaseomyces glabratus
C. tropicalis 156 [10] = experiment: Broth microdilution MIC and MFC (CLSI); format: cell-based; details: Candida tropicalis
C. krusei 1447 [11] = experiment: Broth microdilution MIC and MFC (CLSI); format: cell-based; details: Pichia kudriavzevii
C. laurentii 325m = experiment: Broth microdilution MIC and MFC (CLSI); format: cell-based, Cr. laurentii; details: Papiliotrema laurentii; C. laurentii 325m clinical isolate; RPMI 1640 pH 7.0, 35 °C, 24 h; read-out: MIC
C. parapsilosis 571 [12] = experiment: Broth microdilution MIC and MFC (CLSI); format: cell-based; details: Lodderomyces parapsilosis

Row | SMILES | MIC (C. glabrata 1402 [1]; 1402) [mg/L] | MIC (A. terreus 497; 497) [mg/L] | MIC (C. krusei 1447 [2]; 1447) [mg/L] | MIC (Cr. laurentii 325m; 325M) [mg/L] | MIC ([3]; Cryptococcus neoformans, 297) [mg/L] | MIC (C. tropicalis 156 [4]; 156) [mg/L] | MIC (Aspergillus niger 1133m; Aspergillus niger, 1133M) [mg/L] | MIC (A. fumigatus 390m; 390M) [mg/L] | MIC (C. parapsilosis 571 [5]; 571) [mg/L] | MIC (Candida albicans 1402 [6]; Candida albicans, 1402) [mg/L] | further results
1 | CCCCCOc1ccc(-c2ccc(-c3ccc(C(=O)N[C@H]4C[C@@H](O)[C@@H](O)NC(=O)[C@@H]5[C@@H](O)[C@@H](C)CN5C(=O)[C@H]([C@@H](C)O)NC(=O)[C@H]([C@H](O)[C@@H](O)c5ccc(O)cc5)NC(=O)[C@@H]5C[C@@H](O)CN5C(=O)[C@H]([C@@H](C)O)NC4=O)cc3)cc2)cc1 [AND, anidulafungin] ({pTerphenylCO(4''-OnC5H11)}-[Orn(4R-OH,5R-OH)]T[Hyp][hTyr(3S-OH,4S-OH)]T[Pro(3S-OH,4S-Me)]; lactam 1-C) | 0.06 (≈ 0.0526 µM) | > 8 | 0.03 (≈ 0.0263 µM) | > 8 | > 8 | 0.12 (≈ 0.105 µM) | > 8 | > 8 | 2 (≈ 1.75 µM) | 0.06 (≈ 0.0526 µM) | –
2 | CC[C@H](C)C[C@H](C)CCCCCCCCC(=O)N[C@H]1C[C@@H](O)[C@@H](NCCN)NC(=O)[C@@H]2[C@@H](O)CCN2C(=O)[C@H]([C@H](O)CCN)NC(=O)[C@H]([C@H](O)[C@@H](O)c2ccc(O)cc2)NC(=O)[C@@H]2C[C@@H](O)CN2C(=O)[C@H]([C@@H](C)O)NC1=O [CAS, Caspofungin] | 0.06 (≈ 0.0549 µM) | > 16 | 0.25 (≈ 0.229 µM) | 16 (≈ 14.6 µM) | 16 (≈ 14.6 µM) | 0.06 (≈ 0.0549 µM) | > 16 | > 16 | 1 (≈ 0.915 µM) | 0.06 (≈ 0.0549 µM) | MIC [7]: > 64 mg/L; MFC (Candida albicans 1402 [8]; Candida albicans 1402, lowest concentration causing 95% death, plated on PDA agar, read-out: MFC): 0.5 mg/L (≈ 0.457 µM); MIC (Candida albicans 1402 [8]; Candida albicans 1402 clinical isolate, RPMI 1640 pH 7.0, 35 °C, 24 h, read-out: MIC): 0.06 mg/L (≈ 0.0549 µM); MFC (C. glabrata 1402 [9]; C. glabrata 1402, lowest concentration causing 95% death, read-out: MFC): 0.5 mg/L (≈ 0.457 µM); MIC (C. glabrata 1402 [9]; C. glabrata 1402 clinical isolate, RPMI 1640 pH 7.0, 35 °C, 24 h, read-out: MIC): 0.06 mg/L (≈ 0.0549 µM); MFC (C. tropicalis 156 [10]; C. tropicalis 156, lowest concentration causing 95% death, read-out: MFC): 0.5 mg/L (≈ 0.457 µM); MIC (C. tropicalis 156 [10]; C. tropicalis 156 clinical isolate, RPMI 1640 pH 7.0, 35 °C, 24 h, read-out: MIC): 0.06 mg/L (≈ 0.0549 µM); MFC (C. krusei 1447 [11]; C. krusei 1447, lowest concentration causing 95% death, read-out: MFC): 1 mg/L (≈ 0.915 µM); MIC (C. krusei 1447 [11]; C. krusei 1447 clinical isolate, RPMI 1640 pH 7.0, 35 °C, 24 h, read-out: MIC): 0.25 mg/L (≈ 0.229 µM); MIC (C. laurentii 325m): 16 mg/L (≈ 14.6 µM); MFC (C. parapsilosis 571 [12]; C. parapsilosis 571, lowest concentration causing 95% death, read-out: MFC): 1 mg/L (≈ 0.915 µM); MIC (C. parapsilosis 571 [12]; C. parapsilosis 571 clinical isolate, RPMI 1640 pH 7.0, 35 °C, 24 h, read-out: MIC): 1 mg/L (≈ 0.915 µM)
3 | Nc1[nH]c(=O)ncc1F [Emi 5-FC, flucytosine] | 0.06 (≈ 0.465 µM) | > 64 | 32 (≈ 248 µM) | 4 (≈ 31 µM) | 8 (≈ 62 µM) | 0.06 (≈ 0.465 µM) | > 64 | > 64 | 0.5 (≈ 3.87 µM) | 0.06 (≈ 0.465 µM) | –
4 | CCC(C)n1ncn(-c2ccc(N3CCN(c4ccc(OCC5COC(Cn6cncn6)(c6ccc(Cl)cc6Cl)O5)cc4)CC3)cc2)c1=O (stereo not shown) [IZ, itraconazole] | – | – | – | – | – | – | – | – | – | – | MIC (C. glabrata 1402 [1]; Sensititre YeastOne, C. glabrata 1402 clinical isolate, read-out: MIC): > 16 mg/L; MIC (A. terreus 497; Sensititre YeastOne, A. terreus 497 clinical isolate, read-out: MIC): 0.25 mg/L (≈ 0.354 µM); MIC (C. krusei 1447 [2]; Sensititre YeastOne, C. krusei 1447 clinical isolate, read-out: MIC): 0.5 mg/L (≈ 0.709 µM); MIC (Cr. laurentii 325m; Sensititre YeastOne, Cr. laurentii 325m clinical isolate, read-out: MIC): 0.12 mg/L (≈ 0.17 µM); MIC ([3]; Sensititre YeastOne, Cryptococcus neoformans 297 clinical isolate, read-out: MIC): 0.5 mg/L (≈ 0.709 µM); MIC (C. tropicalis 156 [4]; Sensititre YeastOne, C. tropicalis 156 clinical isolate, read-out: MIC): > 16 mg/L; MIC (Aspergillus niger 1133m; Sensititre YeastOne, Aspergillus niger 1133m clinical isolate, read-out: MIC): 1 mg/L (≈ 1.42 µM); MIC (A. fumigatus 390m; Sensititre YeastOne, A. fumigatus 390m clinical isolate, read-out: MIC): 0.25 mg/L (≈ 0.354 µM); MIC (C. parapsilosis 571 [5]; Sensititre YeastOne, C. parapsilosis 571 clinical isolate, read-out: MIC): 0.5 mg/L (≈ 0.709 µM); MIC (Candida albicans 1402 [6]; Sensititre YeastOne, Candida albicans 1402 clinical isolate, read-out: MIC): 0.5 mg/L (≈ 0.709 µM)
